In one series the test system is PLC26 cells. Description: MTT cell viability assay in PLC26 cells. As to conditions: 0~40 μM for 24 hours, compared with Gefitinib. Format: cell-based, human. The procedure: After treatment, the cells were re-cultured in fresh medium for 2 days. The cell viability was analyzed by MTT assays. The results were obtained from three independent experiments and the bar represents the mean±S.E.M. ***p<0.001 indicates significant difference between gefitinib and SP101 treated samples.
A549 (ATCC number: CCL-185) was a non-small cell lung carcinoma cell line which expressed wild type EGFR and with K-Ras mutation (G12S). H1975 (ATCC number: CRL-5908) was a non-small cell lung carcinoma cell line which expressed EGFR L858R/T790M mutation. Oct4 and Nanog overexpression in A549-ON presented the properties of cancer stem-like cells, as well as epithelial-mesenchymal transdifferentiation. PLC26 was lung cancer cells that separated from pleural effusion of a clinical lung cancer patient (IRB number: 103-011-E). A549-ON cells were cultured in DMEM medium. A549 and H1975 cells were maintained in RPMI-1640 medium. PLC26 cells were maintained in LHC-9 medium. […]
We have further investigated the effect of SP101 in PLC26 lung cancer cells separated from the pleural effusion of a clinical lung cancer patient. To compare the cell viability of SP101 and Gefitinib in PLC26 cells, the cells were treated with 0˜40 μM SP101 or Gefitinib for 24 hours, and analyzed by MTT assays. […] The apoptosis levels of SP101 in PLC26 cells were analyzed by Annexin V and PI staining. […]
In general terms: Formazan colour is commonly taken as a measure of viable cells.

Another series has as its system H1975 xenograft tumors. The series is described as follows: Xenografted human NSCLC (H1975) tumors in nude mice. Type of series: in vivo. As to conditions: 30 mg/kg once per four days. From the text: The results were obtained from twelve mice and the bar represents the mean±S.E.M.**p<0.01, indicating significant difference between control and SP101 treatment group mice. ###p<0.001 indicates significant differences between SP101 and Gefitinib-treated mice.
The tumor weight was means±*p<0.05 indicating significant differences between control and SP101 treatment group mice. #p<0.05 indicates significant differences between SP101 and Gefitinib-treated mice.
NSCLC tumors in nude mice were established. Seven-week-old nude mice were subcutaneously injected with 3×10^6 H1975 cells. Please refer to FIGS. 7 and 8. After 7 to 10 days inoculation, the nude mice were treated with vehicle or 30 mg/kg SP101 or 30 mg/kg Gefitinib once per four days and tumor sizes in the nude mice were measured every four days. The nude mice were sacrificed after treatment for 16 days; the tumors were harvested to measure tumor volume/weight and further analyze tumor tissues. […] Please refer to FIG. 9.

Series [1] relates to Oct4, Nanog and Survivin in A549-ON cells. Description: Western blot and immunofluorescence of Oct4, Nanog and Survivin in A549-ON cells. Format: cell-based, human. The procedure: At the end of treatment, the total protein extracts were prepared for Western blot analyses using specific antibodies, including rabbit anti-Survivin, rabbit anti-cleaved caspase 3 and mouse anti-actin. Representative immunoblotting data were shown from one of three separate experiments with similar findings. […] was an internal control protein.
(§1) FIG. 17 is a result of immunofluorescence staining and confocal microscopy. Then green color indicates the location of Oct4 excited with 488 nm and the emission and collected in 493-518 nm. The β-tubulin was stained with Cy3-labeled mouse anti-β-tubulin antibody. The fluorescence intensity of β-tubulin (red color) was excited with 543 nm and the emission was collected in range of 560-580 nm. Blue fluorescence indicates nuclei following staining with Hoechst 33258 and was excited with 405 nm and the emission was collected in 415-450 nm. Overlapping localization is shown in the merged images.
as §1, with “18” for “17”, “Survivin protein” for “Oct4”
Oct4 and Nanog have been served as markers of tumorigenesis. Furthermore, Oct4 played a pivotal role in Gefitinib resistance in lung cancer stem cells. […] Please refer to FIG. 16. […] We further investigated the expression of Oct4 and Survivin by immunofluorescence staining and confocal microscopy. Please refer to FIGS. 17 and 18. The green fluorescence (dylight 488) indicated the location of Oct4 and Survivin. The blue fluorescence (Hoechst 33258) and red (Cy3) fluorescence represent nucleus and β-tubulin, respectively. Treatment with 30 μM SP101 for 24 hours inhibited Oct4 proteins expression and induced apoptotic bodies as shown in FIG. 17; moreover, the Survivin proteins were inhibited by SP101 treatment as shown in FIG. 18.
Background: A western blot detects proteins with antibodies after separation by electrophoresis.

Series [2] addresses T1, phosphorylated EGFR (Tyr1068) (Homo sapiens, UniProt P00533).
T1 construct: endogenous in cells; host or cells: A549 (ATCC CCL-185)
Description: Western blot of phosphorylated EGFR and total EGFR in A549 cells. Format: cell-based. As to conditions: 10~40 μM for 24 hours. The procedure: At the end of treatment, the total protein extracts were prepared for Western blot analyses using specific antibodies, including rabbit anti-p-EGFR (Tyr1068), rabbit anti-EGFR and mouse anti-actin. Representative immunoblotting data were shown from one of three separate experiments with similar findings. Actin was an internal control protein.
Please refer to FIG. 14. The expressions of phosphorylated EGFR and total EGFR proteins after treatment with SP101 (10˜40 μM for 24 hours) in the K-Ras mutation A549 cells were analyzed by Western blot. […] Please refer to FIG. 15. We further examined the apoptosis levels of SP101 in A549 cells by Annexin V and PI staining. The cells were trypsinized and then incubated with propidium iodide (5 μl) and Annexin V-FITC (5 μl) at room temperature for 5 min before flow cytometry.

Where [3] appears, read: 30 μM for 24 hours, immunofluorescence and confocal microscopy.
Setting [4] is: 20<30 μM for 24 hours, Western blot.

T1 sequence (P00533 25-1210): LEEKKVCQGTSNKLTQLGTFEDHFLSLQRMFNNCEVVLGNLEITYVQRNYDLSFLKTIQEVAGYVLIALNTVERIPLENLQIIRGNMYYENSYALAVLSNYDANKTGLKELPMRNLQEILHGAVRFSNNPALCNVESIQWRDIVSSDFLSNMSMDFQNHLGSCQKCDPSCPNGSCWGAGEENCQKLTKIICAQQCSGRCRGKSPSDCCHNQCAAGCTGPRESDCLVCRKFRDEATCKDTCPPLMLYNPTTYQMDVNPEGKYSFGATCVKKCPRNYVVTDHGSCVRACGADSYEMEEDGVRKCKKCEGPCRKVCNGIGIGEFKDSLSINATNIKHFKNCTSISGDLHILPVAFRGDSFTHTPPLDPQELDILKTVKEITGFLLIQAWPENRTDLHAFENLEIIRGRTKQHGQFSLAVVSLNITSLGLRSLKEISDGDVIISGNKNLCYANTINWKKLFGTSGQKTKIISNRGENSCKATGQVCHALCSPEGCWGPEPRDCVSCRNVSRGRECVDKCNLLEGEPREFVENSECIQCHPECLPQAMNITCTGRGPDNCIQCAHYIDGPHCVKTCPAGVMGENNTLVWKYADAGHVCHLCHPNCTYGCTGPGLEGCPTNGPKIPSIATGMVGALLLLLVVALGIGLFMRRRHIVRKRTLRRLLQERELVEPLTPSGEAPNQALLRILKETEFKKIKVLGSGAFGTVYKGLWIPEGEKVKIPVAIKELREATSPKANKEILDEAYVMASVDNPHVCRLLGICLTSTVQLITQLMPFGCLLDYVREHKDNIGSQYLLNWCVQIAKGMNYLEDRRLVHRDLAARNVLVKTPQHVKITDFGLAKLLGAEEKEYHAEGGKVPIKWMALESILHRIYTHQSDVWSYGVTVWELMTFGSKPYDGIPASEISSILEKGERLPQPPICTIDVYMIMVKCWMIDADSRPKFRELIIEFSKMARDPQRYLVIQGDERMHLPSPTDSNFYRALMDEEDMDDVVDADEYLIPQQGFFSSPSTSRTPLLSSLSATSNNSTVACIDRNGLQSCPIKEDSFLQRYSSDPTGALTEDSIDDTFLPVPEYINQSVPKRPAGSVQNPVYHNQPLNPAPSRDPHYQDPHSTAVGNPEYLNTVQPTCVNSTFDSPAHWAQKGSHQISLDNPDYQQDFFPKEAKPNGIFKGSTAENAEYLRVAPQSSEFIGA

As for `CCCCCCCCCCCCOC(=O)CCC(=O)N1CCN(CCCOc2cc3c(Nc4ccc(F)c(Cl)c4)ncnc3cc2OC)CC1` [SP101, dodecyl 4-(4-(3-(4-(3-chloro-4-fluorophenylamino)-7-methoxyquinazolin-6-yloxy)propyl)piperazin-1-yl)-4-oxobutanoate], in the series with PLC26 cells, the “reduction of cell viability” value is recorded as “more effective on the reduction of cell viability than Gefitinib”. The “body weight of the nude mice” value in the series on H1975 xenograft tumors (during the treatment period) is reported as “did not alter”. The tumor growth entry with H1975 xenograft tumors (H1975 xenograft in nude mice, 16 days) is reported as “significantly inhibited”. In addition, in the series with H1975 xenograft tumors (H1975 xenograft in nude mice, after sacrifice at 16 days, compared with Gefitinib), the tumor weight entry is on record as “more potent on the inhibition of tumor weight than Gefitinib”. Further, in series [1] (setting [3]), the Oct4 proteins expression result is on record as “inhibited” and the Survivin proteins entry is “inhibited”. In series [1] (setting [4]), the Nanog protein expression entry is “significantly reduced”, the Oct4 protein expression entry is “significantly reduced” and the Survivin protein expression entry is listed as “significantly reduced”. Also, in series [2], the “phosphorylated EGFR (Tyr1068) protein levels” value is “significantly reduced” and the “total EGFR protein levels” value was “did not alter”.

(Values after patent US9980967B1, “Method for overcoming drug resistance of EGFR mutation and cancerous stemness of human non-small cell lung carcinoma” (NATIONAL CHIAO TUNG UNIVERSITY, priority 2017, dated 2018).)
